The text below walks through data of article PMC6009894, “Molecular modelling insights into a physiologically favourable approach to eicosanoid biosynthesis inhibition through novel thieno[2,3-b]pyridine derivatives” (Journal of Enzyme Inhibition and Medicinal Chemistry, 2018).

Values joined by “and” are separate entries in the source; they are usually repeats but may differ in a detail not shown here. Identical values can stand only once.

Data set [1] has as its system carrageenan-induced rat paw oedema. Description: carrageenan-induced rat paw oedema assay. It is filed as in vivo, Sprague–Dawley rats. Particulars: for Inhibition of acute inflammation % inh / Swel (mean difference in rat paw volume between right and left paw): dose equivalent to 70 mg kg-1 ibuprofen; for Swel (mean difference in rat paw volume between right and left paw): DMSO. The method, then: According to a priori test results, experiments were conducted on young adult male Sprague–Dawley rats (5 rats per group), weighing 140–170 g. The animals were housed at cages in a temperature controlled (25 ± 1 °C) environment and were fed ad libitum with standard laboratory chow and allowed free access to water. […] The animal protocol is in accordance with the Animal Ethical Care regulations in the Faculty of Pharmacy, Helwan University.
Compounds (equimolar to the reference drug) were dissolved in DMSO and administrated subcutaneously. One hour later, paw oedema was induced by subplantar injection of 0.1 ml of 1% carrageenan (Sigma-Aldrich, St. Louis, MO) into the right hind paw. Paw volume was measured using a water plethysmometer (Basile, Comerio, Italy). The difference between the right and left paw volume was measured at 1, 2, 3, and 4 h after induction of inflammation.
The control group (five rats per group) received DMSO subcutaneously and carrageenan in the subplantar region. Results were expressed as percentage inhibition of inflammation.
On the technique in general: Carrageenan injected into the paw causes an acute inflammation.

`CC1=CC(C)=C(C#N)C2SC(=Cc3ccccc3)C(=O)N12` (racemic) [Compound 2a]: the melting point (in general, the temperature of the solid-liquid transition) fell in the range of 105 to 107 °C. Moreover, the “Inhibition of acute inflammation % inh” value in data set [1] (1 h) amounted to 0%. For the same molecule, the “Swel (mean difference in rat paw volume between right and left paw)” value in data set [1] (1 h after carrageenan) is recorded as 0.457. For the same molecule, the “Inhibition of acute inflammation % inh” value in data set [1] (2 h) was determined as 0%. Also, the “Swel (mean difference in rat paw volume between right and left paw)” value in data set [1] (2 h after carrageenan) is 0.595. Moreover, in data set [1] (3 h), the “Inhibition of acute inflammation % inh” value worked out at 16.605%. Moreover, in data set [1] (3 h after carrageenan), the “Swel (mean difference in rat paw volume between right and left paw)” value is 0.453. For the same molecule, the “Inhibition of acute inflammation % inh” value in data set [1] (4 h) is recorded as 21.95%. Moreover, the “Swel (mean difference in rat paw volume between right and left paw)” value in data set [1] (4 h after carrageenan) was 0.491.

`CC1=CC(C)=C(C#N)C2SCN(c3ccccc3)CN12` (racemic) [Compound 4a, (±)3-Aryl-2,3,4,9a-tetrahydro-6,8-dimethylpyrido[2,1-b][1,3,5]thiadiazine-9-carbonitrile]: the melting point lay within 180 to 182 °C. Besides, the “Inhibition of acute inflammation % inh” value in data set [1] (1 h) worked out at 0%. The “Swel (mean difference in rat paw volume between right and left paw)” value in data set [1] (1 h after carrageenan) is given as 0.394. Besides, the “Inhibition of acute inflammation % inh” value in data set [1] (2 h) is recorded as 0%. Besides, the “Swel (mean difference in rat paw volume between right and left paw)” value in data set [1] (2 h after carrageenan) stood at 0.407. For the same molecule, the “Inhibition of acute inflammation % inh” value in data set [1] (3 h) is 38.174%. For the same molecule, the “Swel (mean difference in rat paw volume between right and left paw)” value in data set [1] (3 h after carrageenan) was 0.336. In addition, the “Inhibition of acute inflammation % inh” value in data set [1] (4 h) was determined as 43.38%. In addition, in data set [1] (4 h after carrageenan), the “Swel (mean difference in rat paw volume between right and left paw)” value worked out at 0.356.

Consider `CC1=CC(C)=C(C#N)C2SCN(Cc3ccccc3)CN12` (racemic) [Compound 4c], for which the melting point was 125 to 127 °C. For the same molecule, in data set [1] (1 h), the “Inhibition of acute inflammation % inh” value worked out at 0%. Moreover, the “Swel (mean difference in rat paw volume between right and left paw)” value in data set [1] (1 h after carrageenan) is on record as 0.45. For the same molecule, the “Inhibition of acute inflammation % inh” value in data set [1] (2 h) amounted to 4.78%. Moreover, the “Swel (mean difference in rat paw volume between right and left paw)” value in data set [1] (2 h after carrageenan) was determined as 0.22. For the same molecule, the “Inhibition of acute inflammation % inh” value in data set [1] (3 h) was 7.39%. In addition, the “Swel (mean difference in rat paw volume between right and left paw)” value in data set [1] (3 h after carrageenan) worked out at 0.213. Also, the “Inhibition of acute inflammation % inh” value in data set [1] (4 h) is 35.08%. Moreover, in data set [1] (4 h after carrageenan), the “Swel (mean difference in rat paw volume between right and left paw)” value amounted to 0.409.

With `Cc1cc(C)c(C#N)c(=S)[nH]1` [Compound 1, 1,2-Dihydro-4,6-dimethyl-2-thioxopyridine-3-carbonitrile], the “Inhibition of acute inflammation % inh” value in data set [1] (1 h) was 0%; in data set [1] (2 h), 0%; in data set [1] (3 h) it was 38.725%; in data set [1] (4 h), 43.91%. Besides, the “Swel (mean difference in rat paw volume between right and left paw)” value was 0.503 in data set [1] (1 h after carrageenan), 0.353 in data set [1] (2 h after carrageenan), 0.33 in data set [1] (3 h after carrageenan) and 0.353 in data set [1] (4 h after carrageenan).

`CSc1nc(C)cc(C)c1C#N` [Compound 3a, S-Methyl-4,6-dimethyl-2-thiopyridine-3-carbonitrile]: the “Inhibition of acute inflammation % inh” value in data set [1] (1 h) is on record as 0%; in data set [1] (2 h), 0%; in data set [1] (3 h), 12.438%; in data set [1] (4 h) it was 43.7%. Besides, the “Swel (mean difference in rat paw volume between right and left paw)” value is recorded as 0.382 in data set [1] (1 h after carrageenan), 0.363 in data set [1] (2 h after carrageenan), 0.476 in data set [1] (3 h after carrageenan) and 0.354 in data set [1] (4 h after carrageenan).

`CCOC(=O)CSc1nc(C)cc(C)c1C#N` [Compound 3b, ethyl 2-(3-cyano-4,6-dimethylpyridin-2-ylthio)acetate] gave a melting point of 93 °C.

On to `CCOC(=O)c1sc2nc(C)cc(C)c2c1N` [Compound 5, Ethyl-3-amino-4,6-dimethylthieno[2,3-b]pyridine-2-carboxylate], for which the “Inhibition of acute inflammation % inh” value in data set [1] (1 h) was 0%; in data set [1] (2 h), 0%; in data set [1] (3 h), 28.921%; in data set [1] (4 h), 46.03%. Further, the “Swel (mean difference in rat paw volume between right and left paw)” value in data set [1] (1 h after carrageenan) is 0.393; in data set [1] (2 h after carrageenan) it was 0.46; in data set [1] (3 h after carrageenan), 0.386; in data set [1] (4 h after carrageenan), 0.34.

With `Cc1cc(C)c2c(N)c(C(=O)NN)sc2n1` [Compound 6, 3-Amino-4,6-dimethylthieno[2,3-b]pyridine-2-carbazide], the “Inhibition of acute inflammation % inh” value turned out to be 0% in data set [1] (1 h), 0% in data set [1] (2 h), 38.84% in data set [1] (3 h) and 58.67% in data set [1] (4 h). Moreover, the “Swel (mean difference in rat paw volume between right and left paw)” value in data set [1] (1 h after carrageenan) is 0.410; in data set [1] (2 h after carrageenan), 0.486; in data set [1] (3 h after carrageenan) it was 0.332; in data set [1] (4 h after carrageenan), 0.26.

On to `COc1ccc(C=NNC(=O)c2sc3nc(C)cc(C)c3c2N)cc1` [Compound 7c, 3-Amino-4,6-dimethyl-thieno [2,3-b] pyridine-2-carboxylic acid (4-methoxy-benzylidene)-hyrazide], for which the “Inhibition of acute inflammation % inh” value in data set [1] (1 h) amounted to 11.59%; in data set [1] (2 h), 25.64%; in data set [1] (3 h) it was 58.3%; in data set [1] (4 h), 63.49%. The “Swel (mean difference in rat paw volume between right and left paw)” value in data set [1] (1 h after carrageenan) is 0.203; in data set [1] (2 h after carrageenan) it was 0.193; in data set [1] (3 h after carrageenan) it was 0.226; in data set [1] (4 h after carrageenan), 0.23.

Take `Cc1cc(C)c2c(n1)sc1c(=O)n(N=Cc3ccccc3)nnc12` [Compound 8a, 7,9-Dimethyl-3-[(phenylmethylene)amino]pyrido[3′,2′:4,5]thieno[3,2-d][1,2,3]triazin-4(3H)-one]: the melting point was 300 to 302 °C. Moreover, in data set [1] (1 h), the “Inhibition of acute inflammation % inh” value is reported as 0%. Besides, the “Swel (mean difference in rat paw volume between right and left paw)” value in data set [1] (1 h after carrageenan) came to 0.256. In data set [1] (2 h), the “Inhibition of acute inflammation % inh” value was 14.1%. Further, the “Swel (mean difference in rat paw volume between right and left paw)” value in data set [1] (2 h after carrageenan) turned out to be 0.223. For the same molecule, the “Inhibition of acute inflammation % inh” value in data set [1] (3 h) turned out to be 30.75%. Moreover, in data set [1] (3 h after carrageenan), the “Swel (mean difference in rat paw volume between right and left paw)” value turned out to be 0.376. For the same molecule, the “Inhibition of acute inflammation % inh” value in data set [1] (4 h) came to 53.96%. Further, the “Swel (mean difference in rat paw volume between right and left paw)” value in data set [1] (4 h after carrageenan) came out at 0.29.

For `Cc1cc(C)c2c(N)c(-n3nc(C)cc3C=C=O)sc2n1` [Compound 9b, 3-Amino-2-[carbonyl (3,5-dimethyl-pyrazol-1-yl)]-4,6-dimethylthieno[2,3-b] pyridine], the melting point was in the range of 150 to 152 °C.

Regarding `CC(=O)N(C(C)=O)n1c(C)nc2c(sc3nc(C)cc(C)c32)c1=O` [Compound 10b, 3-Diacetylamino-2,7,9-trimethylpyrido [3',2':4,5]thieno[3,2-d]pyrimidin-4(3H)-one], the melting point is 133 to 135 °C.

Consider `CC(C)Cc1ccc(C(C)C(=O)O)cc1` (stereo not drawn) [Ibuprofen, reference compound], for which the “Inhibition of acute inflammation % inh” value came to 6.08% in data set [1] (1 h), 45% in data set [1] (2 h), 60.66% in data set [1] (3 h) and 69.52% in data set [1] (4 h). Further, the “inflammation reduction % (4h)” value in data set [1] (rat paw oedema, 4 h time interval, subcutaneous, equimolar to ibuprofen 70 mg kg-1) is 69.5% and 69.52%.
